Experimental findings from US11472842B2 (Protagonist Therapeutics, Inc., priority 2015, dated 2022) are described below.

The structures appear in SMILES notation.

For this experiment, the target named is T1, human ferroportin (Homo sapiens, UniProt Q9NP59).
T1 construct: expressed in transfected cells
T1 sequence (Q9NP59 1-571): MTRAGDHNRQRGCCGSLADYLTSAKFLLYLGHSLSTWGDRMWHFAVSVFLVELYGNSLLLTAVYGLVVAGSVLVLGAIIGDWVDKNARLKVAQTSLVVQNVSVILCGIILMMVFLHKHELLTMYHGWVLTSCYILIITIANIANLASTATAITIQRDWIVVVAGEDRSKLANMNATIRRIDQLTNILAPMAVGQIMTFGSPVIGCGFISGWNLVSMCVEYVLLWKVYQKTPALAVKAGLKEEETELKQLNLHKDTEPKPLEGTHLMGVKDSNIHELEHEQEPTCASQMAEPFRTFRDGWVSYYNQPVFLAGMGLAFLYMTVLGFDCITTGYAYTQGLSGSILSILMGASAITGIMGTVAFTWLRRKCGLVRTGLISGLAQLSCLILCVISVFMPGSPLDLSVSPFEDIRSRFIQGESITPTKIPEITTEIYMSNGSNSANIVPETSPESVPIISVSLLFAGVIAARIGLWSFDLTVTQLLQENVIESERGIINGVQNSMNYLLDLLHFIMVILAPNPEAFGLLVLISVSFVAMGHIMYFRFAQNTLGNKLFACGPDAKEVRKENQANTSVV
Description: Ferroportin internalization / degradation, HEK-GFP cell based assay (HEK293 cells stably expressing ferroportin-GFP, decrease in GFP fluorescence). The settings on record: for DC50: Table 3 monomer analogues, ferroportin-GFP HEK293 cells, 18-24 h incubation, read-out: HEK-GFP cell based assay (potency EC50). As for the experimental part: Peptide analogues were tested in vitro for induction of internalization of the human ferroportin protein. Following internalization, the […] are degraded. The assay measures a decrease in fluorescence of the receptor.
The cDNA encoding the human ferroportin (SLC40A1) was cloned from a cDNA clone from Origene (NM_014585). The DNA encoding the ferroportin was amplified by PCR using primers also encoding terminal restriction sites for subcloning, but without the termination codon. The ferroportin receptor was subcloned into a mammalian GFP expression vector containing a neomycin (G418) resistance marker in such that the reading frame of the ferroportin was fused in frame with the GFP protein. The fidelity of the DNA encoding the protein was confirmed by DNA sequencing. HEK293 cells were used for transfection of the ferroportin-GFP receptor expression plasmid. The cells were grown according to standard protocol in growth medium and transfected with the plasmids using Lipofectamine (manufacturer's protocol, Invitrogen). […] The cells were propagated and frozen in aliquots.
Compound was added to desired final concentration for at least 18 hours in the incubator. […] Compound was added to desired final concentration for at least 18 hours but no more than 24 hours in the incubator.
The EC50 of these reference compounds for ferroportin degradation was determined according to the activity assay described above. These peptides served as control standards.
These values were determined as described herein.

What is called EC50 is the concentration giving half of the maximal effect.

Regarding `CCCCCCCCCCCCCCCC(=O)NCCOCCOCCC(=O)NCCCC[C@@H]1NC(=O)[C@H](Cc2ccccc2)NC(=O)[C@H](CCCCN)NC(=O)[C@H]([C@@H](C)CC)NC(=O)[C@@H](NC(=O)[C@@H]2CCCN2C(=O)[C@H](Cc2ccccc2)NC(=O)[C@H](Cc2c[nH]cn2)NC(=O)[C@@H](NC(=O)[C@H](CC(=O)O)NC(=O)CC(C)C)[C@@H](C)O)CSSC[C@@H](C(=O)N[C@@H](CCCCN)C(N)=O)NC(=O)CNC(=O)[C@H](CCCCN)NC(=O)[C@H](CO)NC(=O)[C@H](CCCNC(=N)N)NC(=O)[C@@H]2CCCN2C1=O` [Compound 16], the DC50 stood at 36 nM. Take `CC[C@H](C)[C@H](NC(=O)[C@H](CS)NC(=O)[C@@H](NC(=O)[C@@H]1CCCN1C(=O)[C@H](Cc1ccccc1)NC(=O)[C@H](Cc1c[nH]cn1)NC(=O)[C@@H](NC(=O)[C@@H](N)CC(=O)O)[C@@H](C)O)[C@@H](C)CC)C(=O)N[C@@H](Cc1ccccc1)C(N)=O` [Mini-Hepcidin 1-9, reference compound]: the EC50 (Table 9 reference compounds, ferroportin degradation, read-out: Potency EC50) stood at 712 nM.

In the case of `CCCCCCCCCCCCCCCC(=O)NCCCCCC(=O)NCCCC[C@@H]1NC(=O)[C@H]([C@@H](C)CC)NC(=O)[C@@H](NC(=O)[C@@H]2CCCN2C(=O)[C@H](Cc2ccccc2)NC(=O)[C@H](Cc2c[nH]cn2)NC(=O)[C@@H](NC(=O)[C@H](CC(=O)O)NC(=O)CC(C)C)[C@@H](C)O)CSSC[C@@H](C(=O)N[C@@H](CCCCN)C(N)=O)NC(=O)CN(C)C(=O)[C@H](CCCCN)NC(=O)[C@H](CO)NC(=O)[C@H](CCCNC(=N)N)NC(=O)[C@@H]2CCCN2C(=O)[C@H](CCC(=O)O)NC(=O)[C@H](Cc2ccccc2)NC1=O` [Compound 23, Isovaleric acid-DTHFPCI-[Lys(Ahx-Palm)]-FEPRSK-[Sar]-CK-NH2], the DC50 came to 6 nM. With `CCCCCCCCCCCCCCCC(=O)N[C@@H](CCC(=O)NCCCC[C@@H]1NC(=O)[C@H](Cc2ccccc2)NC(=O)[C@H](CCCCN)NC(=O)[C@H]([C@@H](C)CC)NC(=O)[C@@H](NC(=O)[C@@H]2CCCN2C(=O)[C@H](Cc2ccccc2)NC(=O)[C@H](Cc2c[nH]cn2)NC(=O)[C@@H](NC(=O)[C@H](CC(=O)O)NC(=O)CC(C)C)[C@@H](C)O)CSSC[C@@H](C(N)=O)NC(=O)CN(C)C(=O)[C@H](CCCCN)NC(=O)[C@H](CO)NC(=O)[C@H](CCCNC(=N)N)NC(=O)[C@@H]2CCCN2C1=O)C(=O)O` [Compound 10], the DC50 was found to be 10 nM. Still for that read-out and setting: for `CCCCCCCCCCCCCCCC(=O)N[C@@H](CCC(=O)NCCCC[C@@H]1NC(=O)[C@H](Cc2ccccc2)NC(=O)[C@H](CCCCN)NC(=O)[C@H]([C@@H](C)CC)NC(=O)[C@@H](NC(=O)[C@@H]2CCCN2C(=O)[C@H](Cc2ccccc2)NC(=O)[C@H](Cc2c[nH]cn2)NC(=O)[C@@H](NC(=O)[C@H](CC(=O)O)NC(=O)CC(C)C)[C@@H](C)O)CSSC[C@@H](C(=O)N[C@@H](CCCCN)C(N)=O)NC(=O)CN(C)C(=O)[C@H](CCCCN)NC(=O)[C@H](CO)NC(=O)[C@H](CCCNC(=N)N)NC(=O)[C@@H]2CCCN2C1=O)C(=O)O` [Compound 6] the value was 11 nM.

Take `CCCCCCCCCCCCCC(=O)N[C@@H](CCC(=O)NCCCC[C@@H]1NC(=O)[C@H](Cc2ccccc2)NC(=O)[C@H](CCCCN)NC(=O)[C@H]([C@@H](C)CC)NC(=O)[C@@H](NC(=O)[C@@H]2CCCN2C(=O)[C@H](Cc2ccccc2)NC(=O)[C@H](Cc2c[nH]cn2)NC(=O)[C@@H](NC(=O)[C@H](CC(=O)O)NC(=O)CC(C)C)[C@@H](C)O)CSSC[C@@H](C(=O)N[C@@H](CCCCN)C(N)=O)NC(=O)CNC(=O)[C@H](CCCCN)NC(=O)[C@H](CO)NC(=O)[C@H](CCCNC(=N)N)NC(=O)[C@@H]2CCCN2C1=O)C(=O)O` [Compound 13]: the DC50 is 10 nM. Same read-out and setting: the value for `CCCCCCCCCCCCCCCC(=O)N[C@@H](CCC(=O)NCCCC[C@@H]1NC(=O)[C@H](Cc2ccccc2)NC(=O)[C@H](CCCCN)NC(=O)[C@H]([C@@H](C)CC)NC(=O)[C@@H](NC(=O)[C@@H]2CCCN2C(=O)[C@@H](NC(=O)[C@H](Cc2c[nH]cn2)NC(=O)[C@@H](NC(=O)[C@H](CC(=O)O)NC(=O)CC(C)C)[C@@H](C)O)C(c2ccccc2)c2ccccc2)CSSC[C@@H](C(=O)N[C@@H](CCCCN)C(N)=O)NC(=O)CNC(=O)[C@H](CCCCN)NC(=O)[C@H](CO)NC(=O)[C@H](CCCNC(=N)N)NC(=O)[C@@H]2CCCN2C1=O)C(=O)O` [Compound 7, Isovaleric acid-DTH-[Dpa]-PCIKF-[Lys(IsoGlu-Palm)]-PRSKGCK-NH2] was 12 nM; that for `CCCCCCCCCCCCCCCC(=O)N[C@@H](CCC(=O)NCCCC[C@@H]1NC(=O)[C@H](Cc2ccccc2)NC(=O)[C@H](CCCCN)NC(=O)[C@H]([C@@H](C)CC)NC(=O)[C@@H](NC(=O)[C@@H]2CCCN2C(=O)[C@H](Cc2ccccc2)NC(=O)[C@H](Cc2c[nH]cn2)NC(=O)[C@@H](NC(=O)[C@H](CC(=O)O)NC(=O)CC(C)C)[C@@H](C)O)CSSC[C@@H](C(N)=O)NC(=O)CNC(=O)[C@H](CCCCN)NC(=O)[C@H](CO)NC(=O)[C@H](CCCNC(=N)N)NC(=O)[C@@H]2CCCN2C1=O)C(=O)O` [Compound 9] was 11 nM. As to `CC[C@H](C)[C@@H]1NC(=O)[C@@H](NC(=O)[C@@H]2CCCN2C(=O)[C@H](Cc2ccccc2)NC(=O)[C@H](Cc2c[nH]cn2)NC(=O)[C@@H](NC(=O)[C@H](CC(=O)O)NC(=O)CC(C)C)[C@@H](C)O)CSSC[C@@H](C(=O)N[C@@H](CCCCN)C(N)=O)NC(=O)CNC(=O)[C@H](CCCCN)NC(=O)[C@H](CO)NC(=O)[C@H](CCCNC(=N)N)NC(=O)[C@@H]2CCCN2C(=O)[C@H](CCCCNC(=O)CC[C@H](NC(=O)CCCC[C@@H]2SC[C@@H]3NC(=O)N[C@@H]32)C(=O)O)NC(=O)[C@H](Cc2ccccc2)NC(=O)[C@H](CCCCN)NC1=O` [Compound 14], the DC50 came out at 29 nM.
